Experimental data published in article PMC8778187, “A New Oxygen Containing Pyclen-Type Ligand as a Manganese(II) Binder for MRI and ^52Mn PET Applications: Equilibrium, Kinetic, Relaxometric, Structural and Radiochemical Studies” (Molecules, 2022).

Experiments:
Assay type in all cases: physicochemical
[1] = Stability and protonation constants of Ca(II) complexes by pH-potentiometry; conditions: Ca^2+ complex; T = 25 °C, I = 0.15 M NaCl
Experimental: (§1) The stability and protonation constants of the metal complexes formed with H2OPC2A were determined by pH-potentiometric titrations, but, for the Cu(II) complex, UV-Vis spectrophotometric measurements were also carried out to supplement the pH-potentiometric titration data (Figures S21 and S22, Supporting Information).
(§2) Metal stock solutions were prepared from the highest analytical grade chemicals, and their concentrations were determined by complexometric titration with standardized Na2H2EDTA and eriochrome black T indicator in the presence of ascorbic acid, and potassium hydrogen tartrate for MnCl2, murexide indicator for CaCl2 and CuCl2, eriochrome black T for MgCl2 and xylenol orange in the presence of hexamethylenetetramine for the solution of ZnCl2. The concentration of the ligand stock solution was determined by pH-potentiometric titrations. The protonation constants of the ligand were determined by the pH potentiometric titrations with 0.15 M NaOH, using 0.0025 M ligand solutions. The ionic strength was set to 0.15 M by using NaCl. […]
(§3) To avoid the effect of CO2, N2 gas was bubbled through the solutions during the titrations process. […] For the calibration of the pH meter, KH-phtalate (pH = 4.005) and borax (pH = 9.177) buffers were used, and the H^+ ion concentrations were calculated from the measured pH values by applying the method proposed by Irving et al.. […]

[2] = Ligand protonation constants by pH-potentiometric titration; conditions: T = 25 °C, I = 0.15 M NaCl
Experimental: The protonation constants of H2OPC2A have been determined by pH-potentiometry in 0.15 M NaCl ionic medium, and the constants determined are listed in Table 2, along with the corresponding values determined for structurally similar ligands used as comparative benchmarks (H23,9-PC2A, H23,6-PC2A, H21,4-DO2A, H21,7-DO2A, and H21,7-O2DO2A).
as §2, §3

[3] = Stability and protonation constants of Mg(II) complexes by pH-potentiometry; conditions: Mg^2+ complex; T = 25 °C, I = 0.15 M NaCl
Experimental: as §1, §2, §3

## O=C(O)CN1CCOCCN(CC(=O)O)Cc2cccc(n2)C1 [H23,9-OPC2A, 6-Oxa-3,9,15-triazabicyclo(9.3.1)pentadeca-1(15),11,13-triene-3,9-diacetic acid]
[1]
  log KMnL: 8.27(1)
[2]
  log K3^H: 2.13(1)
[2]; log K1^H + log K2^H
  Σlog Κ2^H: 15.39
[3]
  log KMgL (stability constant of the Mg(II) complex): 7.02(1)
